Biological target: T1, human DP2 receptor (Homo sapiens, UniProt Q9Y5Y4)
T1 construct: expressed in transfected cells; host or cells: CHO-K1 FLP-In (Invitrogen, catalog no. R758-07), stably transfected
T1 sequence (Q9Y5Y4 1-395): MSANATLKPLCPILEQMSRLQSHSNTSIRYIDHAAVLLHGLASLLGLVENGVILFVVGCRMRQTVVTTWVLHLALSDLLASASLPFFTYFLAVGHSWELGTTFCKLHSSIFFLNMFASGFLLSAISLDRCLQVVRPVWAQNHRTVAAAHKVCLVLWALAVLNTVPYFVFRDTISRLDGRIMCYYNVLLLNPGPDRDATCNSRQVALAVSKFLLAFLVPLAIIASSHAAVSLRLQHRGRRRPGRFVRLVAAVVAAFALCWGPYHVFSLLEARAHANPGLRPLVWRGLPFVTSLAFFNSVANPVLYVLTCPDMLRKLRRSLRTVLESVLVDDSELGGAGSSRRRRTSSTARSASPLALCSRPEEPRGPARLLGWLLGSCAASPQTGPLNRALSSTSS
Assay: Prostaglandin D2 binding inhibition assay (scintillation proximity assay, 3H PGD2, membranes of transfected CHO cells)
Conditions: SPA, 5.5 nM 3H PGD2, CHO-K1 FLP-In human DP2 membranes; upper limit determinable 30 μM; read-out: IC50 ranges for inhibition of PGD2 binding to human DP2
Outline: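 Membranes (5 μg) from CHO-K1 cells stably expressing human DP2 were mixed with WGA SPA beads and 5.5 nM 3H PGD2 in Tris buffer with 10 mM MgCl2, 100 mM NaCl, 0.1% BSA, plus compound. After 60 min at room temperature, CPM were read; IC50 from two-parameter nonlinear regression.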

| IC50 | Structure (SMILES) |
| --- | --- |
| < 1 µM | O=C(O)Cn1c(=O)n([C@@H]2CCN(S(=O)(=O)c3ccc(F)cc3Cl)C2)c2ncccc21 [Compound 101, (R)-2-(3-(1-(2-chloro-4-fluorophenylsulfonyl)pyrrolidin-3-yl)-2-oxo-2,3-dihydro-1H-imidazo[4,5-b]pyridin-1-yl)acetic acid] |
| < 1 µM | O=C(O)Cn1c(=O)n([C@@H]2CCN(S(=O)(=O)c3ccc(Cl)cc3Cl)C2)c2ncccc21 [Compound 102, (R)-2-(3-(1-(2,4-dichlorophenylsulfonyl)pyrrolidin-3-yl)-2-oxo-2,3-dihydro-1H-imidazo[4,5-b]pyridin-1-yl)acetic acid] |
| < 1 µM | Cc1ccc(S(=O)(=O)N2CC[C@@H](n3c(=O)n(CC(=O)O)c4cccnc43)C2)c(F)c1 [Compound 103, (R)-2-(3-(1-(2-fluoro-4-methylphenylsulfonyl)pyrrolidin-3-yl)-2-oxo-2,3-dihydro-1H-imidazo[4,5-b]pyridin-1-yl)acetic acid] |
| 1 to 10 µM | CS(=O)(=O)c1ccccc1S(=O)(=O)NC1CCC(n2c(=O)n(CC(=O)O)c3cccnc32)CC1 (stereo not shown) [Compound 104, 2-(3-(4-(2-(methylsulfonyl)phenylsulfonamido)cyclohexyl)-2-oxo-2,3-dihydro-1H-imidazo[4,5-b]pyridin-1-yl)acetic acid] |
| 1 to 10 µM | O=C(O)Cn1c(=O)n(C2CCC(NS(=O)(=O)c3ccc(F)cc3Cl)CC2)c2ncccc21 (stereo not shown) [Compound 105, 2-(3-(4-(2-chloro-4-fluorophenylsulfonamido)cyclohexyl)-2-oxo-2,3-dihydro-1H-imidazo[4,5-b]pyridin-1-yl)acetic acid] |
| 1 to 10 µM | O=C(O)Cn1c(=O)n(C2CCC(NS(=O)(=O)c3ccc(Cl)cc3Cl)CC2)c2ncccc21 (stereo not shown) [Compound 106, 2-(3-(4-(2,4-dichlorophenylsulfonamido)cyclohexyl)-2-oxo-2,3-dihydro-1H-imidazo[4,5-b]pyridin-1-yl)acetic acid] |
| 1 to 10 µM | Cc1ccc(S(=O)(=O)NC2CCC(n3c(=O)n(CC(=O)O)c4cccnc43)CC2)c(F)c1 (stereo not shown) [Compound 107, 2-(3-(4-(2-fluoro-4-methylphenylsulfonamido)cyclohexyl)-2-oxo-2,3-dihydro-1H-imidazo[4,5-b]pyridin-1-yl)acetic acid] |
| 1 to 10 µM | CS(=O)(=O)c1ccccc1S(=O)(=O)N1CCC[C@H](n2c(=O)n(CC(=O)O)c3cccnc32)C1 [Compound 108, (S)-2-(3-(1-(2-(methylsulfonyl)phenylsulfonyl)piperidin-3-yl)-2-oxo-2,3-dihydro-1H-imidazo[4,5-b]pyridin-1-yl)acetic acid] |
| 1 to 10 µM | O=C(O)Cn1c(=O)n([C@H]2CCCN(S(=O)(=O)c3ccc(Cl)cc3Cl)C2)c2ncccc21 [Compound 109, (S)-2-(3-(1-(2,4-dichlorophenylsulfonyl)piperidin-3-yl)-2-oxo-2,3-dihydro-1H-imidazo[4,5-b]pyridin-1-yl)acetic acid] |
| 1 to 10 µM | Cc1ccc(S(=O)(=O)N2CCC[C@H](n3c(=O)n(CC(=O)O)c4cccnc43)C2)c(F)c1 [Compound 110, (S)-2-(3-(1-(2-fluoro-4-methylphenylsulfonyl)piperidin-3-yl)-2-oxo-2,3-dihydro-1H-imidazo[4,5-b]pyridin-1-yl)acetic acid] |
| < 1 µM | CS(=O)(=O)c1ccccc1S(=O)(=O)N1CCC(n2c(=O)n(CC(=O)O)c3cccnc32)C1 (stereo not shown) [Compound 111, 2-(3-(1-(2-(methylsulfonyl)phenylsulfonyl)pyrrolidin-3-yl)-2-oxo-2,3-dihydro-1H-imidazo[4,5-b]pyridin-1-yl)acetic acid] |
| 1 to 10 µM | O=C(O)Cn1c(=O)n(C2CCN(S(=O)(=O)c3ccc(Cl)cc3Cl)C2)c2ncccc21 (stereo not shown) [Compound 112, 2-(3-(1-(2,4-dichlorophenylsulfonyl)pyrrolidin-3-yl)-2-oxo-2,3-dihydro-1H-imidazo[4,5-b]pyridin-1-yl)acetic acid] |
| < 1 µM | CS(=O)(=O)c1ccccc1S(=O)(=O)N1CCC[C@@H](n2c(=O)n(CC(=O)O)c3cccnc32)C1 [Compound 113, (R)-2-(3-(1-(2-(methylsulfonyl)phenylsulfonyl)piperidin-3-yl)-2-oxo-2,3-dihydro-1H-imidazo[4,5-b]pyridin-1-yl)acetic acid] |
| < 1 µM | O=C(O)Cn1c(=O)n([C@@H]2CCCN(S(=O)(=O)c3ccc(F)cc3Cl)C2)c2ncccc21 [Compound 114, (R)-2-(3-(1-(2-chloro-4-fluorophenylsulfonyl)piperidin-3-yl)-2-oxo-2,3-dihydro-1H-imidazo[4,5-b]pyridin-1-yl)acetic acid] |
| < 1 µM | O=C(O)Cn1c(=O)n([C@@H]2CCCN(S(=O)(=O)c3ccc(Cl)cc3Cl)C2)c2ncccc21 [Compound 115, (R)-2-(3-(1-(2,4-dichlorophenylsulfonyl)piperidin-3-yl)-2-oxo-2,3-dihydro-1H-imidazo[4,5-b]pyridin-1-yl)acetic acid] |
| < 1 µM | Cc1ccc(S(=O)(=O)N2CCC[C@@H](n3c(=O)n(CC(=O)O)c4cccnc43)C2)c(F)c1 [Compound 116, (R)-2-(3-(1-(2-fluoro-4-methylphenylsulfonyl)piperidin-3-yl)-2-oxo-2,3-dihydro-1H-imidazo[4,5-b]pyridin-1-yl)acetic acid] |
| > 30 µM | Cc1ccnc2c1n(CC(=O)O)c(=O)n2C1CCN(S(=O)(=O)c2ccccc2S(C)(=O)=O)CC1 [Compound 117, 2-(7-methyl-3-(1-(2-(methylsulfonyl)phenylsulfonyl)piperidin-4-yl)-2-oxo-2,3-dihydro-1H-imidazo[4,5-b]pyridin-1-yl)acetic acid] |
| > 30 µM | Cc1ccc(S(=O)(=O)N2CCC(n3c(=O)n(CC(=O)O)c4c(C)ccnc43)CC2)c(F)c1 [Compound 118, 2-(3-(1-(2-fluoro-4-methylphenylsulfonyl)piperidin-4-yl)-7-methyl-2-oxo-2,3-dihydro-1H-imidazo[4,5-b]pyridin-1-yl)acetic acid] |
| > 30 µM | Cc1cc(F)ccc1S(=O)(=O)N1CCC(n2c(=O)n(CC(=O)O)c3c(C)ccnc32)CC1 [Compound 119, 2-(3-(1-(4-fluoro-2-methylphenylsulfonyl)piperidin-4-yl)-7-methyl-2-oxo-2,3-dihydro-1H-imidazo[4,5-b]pyridin-1-yl)acetic acid] |
| > 30 µM | Cc1ccnc2c1n(CC(=O)O)c(=O)n2C1CCN(S(=O)(=O)c2ccc(F)cc2Cl)CC1 [Compound 120, 2-(3-(1-(2-chloro-4-fluorophenylsulfonyl)piperidin-4-yl)-7-methyl-2-oxo-2,3-dihydro-1H-imidazo[4,5-b]pyridin-1-yl)acetic acid] |
| > 30 µM | Cc1ccnc2c1n(CC(=O)O)c(=O)n2C1CCN(S(=O)(=O)c2ccccc2Cl)CC1 [Compound 121, 2-(3-(1-(2-chlorophenylsulfonyl)piperidin-4-yl)-7-methyl-2-oxo-2,3-dihydro-1H-imidazo[4,5-b]pyridin-1-yl)acetic acid] |
| > 30 µM | Cc1ccnc2c1n(CC(=O)O)c(=O)n2C1CCN(S(=O)(=O)c2ccc(Cl)cc2Cl)CC1 [Compound 122, 2-(3-(1-(2,4-dichlorophenylsulfonyl)piperidin-4-yl)-7-methyl-2-oxo-2,3-dihydro-1H-imidazo[4,5-b]pyridin-1-yl)acetic acid] |
| > 30 µM | Cc1cnc2c(c1)n(CC(=O)O)c(=O)n2C1CCN(S(=O)(=O)c2ccccc2S(C)(=O)=O)CC1 [Compound 123, 2-(6-methyl-3-(1-(2-(methylsulfonyl)phenylsulfonyl)piperidin-4-yl)-2-oxo-2,3-dihydro-1H-imidazo[4,5-b]pyridin-1-yl)acetic acid] |
| 1 to 10 µM | Cc1ccc(S(=O)(=O)N2CCC(n3c(=O)n(CC(=O)O)c4cc(C)cnc43)CC2)c(F)c1 [Compound 124, 2-(3-(1-(2-fluoro-4-methylphenylsulfonyl)piperidin-4-yl)-6-methyl-2-oxo-2,3-dihydro-1H-imidazo[4,5-b]pyridin-1-yl)acetic acid] |
| 10 to 30 µM | Cc1cnc2c(c1)n(CC(=O)O)c(=O)n2C1CCN(S(=O)(=O)c2ccc(F)cc2C)CC1 [Compound 125, 2-(3-(1-(4-fluoro-2-methylphenylsulfonyl)piperidin-4-yl)-6-methyl-2-oxo-2,3-dihydro-1H-imidazo[4,5-b]pyridin-1-yl)acetic acid] |
| 10 to 30 µM | Cc1cnc2c(c1)n(CC(=O)O)c(=O)n2C1CCN(S(=O)(=O)c2ccc(F)cc2Cl)CC1 [Compound 126, 2-(3-(1-(2-chloro-4-fluorophenylsulfonyl)piperidin-4-yl)-6-methyl-2-oxo-2,3-dihydro-1H-imidazo[4,5-b]pyridin-1-yl)acetic acid] |
| 1 to 10 µM | Cc1cnc2c(c1)n(CC(=O)O)c(=O)n2C1CCN(S(=O)(=O)c2ccccc2Cl)CC1 [Compound 127, 2-(3-(1-(2-chlorophenylsulfonyl)piperidin-4-yl)-6-methyl-2-oxo-2,3-dihydro-1H-imidazo[4,5-b]pyridin-1-yl)acetic acid] |
| > 30 µM | O=C(O)Cn1c(=O)n(C2CCN(S(=O)(=O)c3ccc(F)cc3Cl)CC2)c2cccnc21 [Compound 132, 2-(1-(1-(2-chloro-4-fluorophenylsulfonyl)piperidin-4-yl)-2-oxo-1H-imidazo[4,5-b]pyridin-3(2H)-yl)acetic acid] |

Source: patent publication US20110190336A1, “AZABENZIMIDAZOLONES” (CARA THERAPEUTICS, INC., priority 2008, published 2011)
